Like-named read-outs stand apart in the source and are kept apart here.

For eleven compounds, change in vivo and EC50 results are on record in patent US8796256B2 (Janssen Pharmaceutica NV, priority 2010, dated 2014).

The subject of assay [1] is Zucker fa/fa male rats. Nature of the assay: Zucker fa/fa Rat Model Assay. Type of assay: in vivo. The note with it: po, 120 h, 10 mg/kg orally once a day for 4 days. An excerpt:
Zucker fa/fa is a monogenic model of frank diabetes due to a mutation on the fa gene truncating the leptin receptor and preventing its interaction with its peptide hormone. This mutation results in a hyperphagic phenotype and the rodent develops obesity, hyperlipidemia, fasting hyperglycemia and insulin resistance. Zucker fa/fa male rats were received at four weeks of age and allowed to acclimate for one week. At five weeks of age the animals were single housed in cages in a temperature-controlled room with 12-hour light/dark cycle. The rats were allowed ad libitum access to water and food and throughout the study were maintained on a Purina 5008 diet. Animals were sorted based primarily on fed insulin levels and circulating triglycerides. Animals were dosed orally once a day (10 mg/kg) in the morning for 4 days. The vehicle used was either 20% HPβCD (Hydroxypropyl Beta Cyclodextrin) or 15% Vitamin E/30% PEG-400 (Polyethylene Glycol 400). Fed insulin and triglycerides were measured using blood collected from the tail vein at day 5. Serum plasma samples were prepared by centrifugation in EDTA (Ethylenediaminetetraacetic acid) containing tubes, transferred into 96 well plates and stored at −80° C.

For assay [2], the target named is T1, ERR1 (also known as ERR-α or ERR-1) (Homo sapiens, UniProt P11474).
T1 sequence (P11474 193-421 limits assumed): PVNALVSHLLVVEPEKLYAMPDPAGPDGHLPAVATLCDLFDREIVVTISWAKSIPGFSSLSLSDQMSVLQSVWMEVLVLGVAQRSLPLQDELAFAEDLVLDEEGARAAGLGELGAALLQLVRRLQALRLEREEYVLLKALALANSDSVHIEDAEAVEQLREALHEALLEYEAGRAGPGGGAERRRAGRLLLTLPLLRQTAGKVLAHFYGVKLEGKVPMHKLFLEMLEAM
The assay can be described thus: TR-FRET assay (disruption of co-activator peptide binding to ERR1 LBD). Type of assay: biochemical. The following applies: 6 nM 6His-ERR1LBD, 6 nM GST-SRC-2 peptide; average of 3 independent experiments. The essentials:
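His-tagged ERR1 ligand-binding domain and GST-labelled SRC-2 peptide, each 6 nM, equilibrated at 25° C for 4-18 h in Tris pH 8/Hepes/KCl/DTT/delipidated BSA buffer. Compound-induced loss of co-activator binding read as Eu cryptate→XL665 energy transfer; values from hyperbolic curve fits averaged over 3 independent runs.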
(Time-resolved FRET reads energy transfer from a long-lived donor to a nearby acceptor.)

[3] abbreviates: blood from tail vein at day 5, read-out: % Change Fed Insulin Levels.
Where [4] appears, read: blood from tail vein at day 5, read-out: % Change Fed Triglyceride Levels.

For orientation: EC50 means the concentration needed to bring the measured effect to its halfway point. Low values mean a more potent agent, high ones a less potent agent. Turning to `O=C1S/C(=C\c2ccc3c(cnn3Cc3ccc(Cl)cc3C(F)(F)F)c2)C(=O)N1C1CCN(CCO)CC1` [Compound 148, (5Z)-5-({1-[4-Chloro-2-(trifluoromethyl)benzyl]-1H-indazol-5-yl}methylidene)-3-[1-(2-hydroxyethyl)piperidin-4-yl]-1,3-thiazolidine-2,4-dione], the change in vivo at 10 mg/kg is -77% in assay [1] (setting [3]) and -40% in assay [1] (setting [4]). The same compound showed a concentration giving a half-maximal response (EC50) in assay [2] of 15 nM.

On to `CN1CC[C@@H](N2C(=O)S/C(=C\c3ccc4c(cnn4Cc4ccc(Cl)cc4C(F)(F)F)c3)C2=O)[C@H](F)C1` (relative stereo) [Compound 277, (5Z)-5-({1-[4-Chloro-2-(trifluoromethyl)benzyl]-1H-indazol-5-yl}methylidene)-3-(trans-3-fluoro-1-methylpiperidin-4-yl)-1,3-thiazolidine-2,4-dione], for which the change in vivo at 10 mg/kg in assay [1] (setting [3]) is -73%; in assay [1] (setting [4]) it was -57%. In assay [2], this compound showed an EC50 of 58 nM.

With `CC(=O)NS(=O)(=O)CN1C(=O)S/C(=C\c2ccc3c(cnn3Cc3ccc(Cl)cc3C(F)(F)F)c2)C1=O` [Compound 166, N-({[(5Z)-5-({1-[4-Chloro-2-(trifluoromethyl)benzyl]-1H-indazol-5-yl}methylidene)-2,4-dioxo-1,3-thiazolidin-3-yl]methyl}sulfonyl)acetamide], the change in vivo at 10 mg/kg in assay [1] (setting [3]) is -58%; in assay [1] (setting [4]) it was -37%. This compound also displayed a 50% effective concentration (EC50) in assay [2] of 8 nM.

As to `CS(=O)(=O)NN1C(=O)S/C(=C\c2ccc3c(cnn3Cc3ccc(Cl)cc3C(F)(F)F)c2)C1=O` [Compound 361, N-[(5Z)-5-({1-[4-Chloro-2-(trifluoromethyl)benzyl]-1H-indazol-5-yl}methylidene)-2,4-dioxo-1,3-thiazolidin-3-yl]methanesulfonamide], the change in vivo at 10 mg/kg in assay [1] (setting [3]) was -58%; in assay [1] (setting [4]), -43%. The compound also gave a 50% effective concentration (EC50) in assay [2] of 13 nM.

Regarding `CN1CC[C@H](N2C(=O)S/C(=C\c3ccc4c(cnn4Cc4ccc(Cl)cc4C(F)(F)F)c3)C2=O)C1` [Compound 143, (5Z)-5-({1-[4-Chloro-2-(trifluoromethyl)benzyl]-1H-indazol-5-yl}methylidene)-3-[(3S)-1-methylpyrrolidin-3-yl]-1,3-thiazolidine-2,4-dione], the change in vivo at 10 mg/kg in assay [1] (setting [3]) is -49%; in assay [1] (setting [4]), -29%. The compound further registered an EC50 in assay [2] of 25 nM.

For `CN(C)S(=O)(=O)NC(=O)CN1C(=O)S/C(=C\c2ccc3c(cnn3Cc3ccc(Cl)cc3C(F)(F)F)c2)C1=O` [Compound 35, 2-[(5Z)-5-({1-[4-Chloro-2-(trifluoromethyl)benzyl]-1H-indazol-5-yl}methylidene)-2,4-dioxo-1,3-thiazolidin-3-yl]-N-(dimethylsulfamoyl) acetamide], the change in vivo at 10 mg/kg is -29% in assay [1] (setting [3]) and -46% in assay [1] (setting [4]). Further, the EC50 in assay [2] came out at 23 nM.

For the compound `O=C1S/C(=C\c2ccc3c(cnn3Cc3ccc(Cl)cc3C(F)(F)F)c2)C(=O)N1CCN1CCCC1` [Compound 111, (5Z)-5-({1-[4-Chloro-2-(trifluoromethyl)benzyl]-1H-indazol-5-yl}methylidene)-3-(2-pyrrolidin-1-ylethyl)-1,3-thiazolidine-2,4-dione], the change in vivo at 10 mg/kg is -49% in assay [1] (setting [3]) and -30% in assay [1] (setting [4]). The same compound returned an EC50 in assay [2] of 17 nM.

Turning to `CS(=O)(=O)NC(=O)CN1C(=O)S/C(=C\c2ccc3c(cnn3Cc3ccc(Cl)cc3C(F)(F)F)c2)C1=O` [Compound 126, 2-[(5Z)-5-({1-[4-Chloro-2-(trifluoromethyl)benzyl]-1H-indazol-5-yl}methylidene)-2,4-dioxo-1,3-thiazolidin-3-yl]-N-(methylsulfonyl)acetamide], the change in vivo at 10 mg/kg in assay [1] (setting [3]) is -14%; in assay [1] (setting [4]) it was 13%. In assay [2], this compound gave an EC50 of 18 nM.

As to `CN1CCC[C@H]1CN1C(=O)S/C(=C\c2ccc3c(cnn3Cc3ccc(Cl)cc3C(F)(F)F)c2)C1=O` [Compound 121, (5Z)-5-({1-[4-Chloro-2-(trifluoromethyl)benzyl]-1H-indazol-5-yl}methylidene)-3-{[(2S)-1-methylpyrrolidin-2-yl]methyl}-1,3-thiazolidine-2,4-dione], the change in vivo at 10 mg/kg was -59% in assay [1] (setting [3]) and -37% in assay [1] (setting [4]). Further, the EC50 in assay [2] is 5 nM.

Regarding `CN1C2CCC1CC(N1C(=O)S/C(=C\c3ccc4c(cnn4Cc4ccc(Cl)cc4C(F)(F)F)c3)C1=O)C2` (stereo not drawn) [Compound 128, (5Z)-5-({1-[4-Chloro-2-(trifluoromethyl)benzyl]-1H-indazol-5-yl}methylidene)-3-(8-methyl-8-azabicyclo[3.2.1]oct-3-yl)-1,3-thiazolidine-2,4-dione], the change in vivo at 10 mg/kg is -36% in assay [1] (setting [3]) and 28% in assay [1] (setting [4]). This compound gave an EC50 in assay [2] of 19 nM.

In the case of `O=C(O)CN1C(=O)S/C(=C\c2ccc3c(c2)c(Cl)nn3Cc2ccc(Cl)cc2C(F)(F)F)C1=O` [Compound 287, [(5Z)-5-({1-[4-Chloro-2-(trifluoromethyl)benzyl]-3-chloro-1H-indazol-5-yl}methylidene)-2,4-dioxo-1,3-thiazolidin-3-yl]acetic acid], the results for the change in vivo at 10 mg/kg in assay [1] (setting [3]) and in assay [1] (setting [4]) were -53% and -36%, respectively. Besides, a half-maximal response in assay [2] (EC50) required 22 nM.
